# pIC50: −log10 of the molar value. Where a name gives a salt, the structure may show the parent alone.
# Key:
# [1] = system: NADPH-induced lipid peroxidation in rat brain microsomes; test: Inhibition of the NADPH-induced (enzymatically induced) lipid peroxidation in brain microsomes; type: biochemical, rat (male Hannover-Wistar); settings: 20 min, 37° C., pH 6.8, 0.4 mM NADPH, malondialdehyde at 535 nm, N.I.: no inhibition
# From the text: The pharmacological effect of the eburnamenine derivatives of the formula (I) was studied as described hereinafter. […] The antioxidative effect was investigated on microsomes prepared from rat brain J. Neurochem. 37, pages 422-426 (1981)! and on rat brain homogenate J. Biol Chem. 262, pages 10438-10440 (1987)!. Inhibition of the NADPH-induced lipid peroxidation in brain microsomes Male Hannover-Wistar rats with a body weight of 150-250 g were used for the preparation of microsomes. After decapitation, the whole brain of the rat was removed and homogenized in a 10-fold volume of ice-cold 0.25M saccharose solution. The homogenate was centrifuged in a Hitachi CR 26H equipment at 15000×g at 4° C. for 10 minutes, then the supernatant was collected and centrifuged in a Hitachi SC[…] equipment at 78000×g at 4° C. for 60 minutes. After suspending the precipitate in 0.15M potassium chloride solution, the protein content of the obtained solution was determined and then adjusted to 10 mg/ml concentration. The microsome thus obtained was frozen in a dry ice-acetone mixture and stored at -70° C. until use. The components of the incubation mixtures were: 50 mM tris(hydroxymethyl)aminomethane hydrochloride (pH 6.8), 0.2 mM ferric chloride, 1 mM potassium dihydrogen phosphate, 0.5 mM adenosine-5'-diphosphate, 0.2 mg of microsomes as well as the compound to be tested. The incubation was carried out with a final volume of 1 ml and an incubation time of 20 minutes at a temperature of 37° C. The lipid peroxidation was induced by adding 0.4 mM NADPH ([…], reduced form). […] The formation of malondialdehyde was determined by using thiobarbituric acid. After stopping the reaction, 1 ml of 1% thiobarbituric acid solution each was added to the samples, which were then 10 placed in a water bath of about 100° C. for 10 minutes. Subsequently, the samples were centrifuged at 2000×g in a Janetzki K70 apparatus at 4° C. for 10 minutes. The absorbance value of the colored supernatant was measured at 535 nm in a Hitachi 150-20 spectrophotometer. Malondialdehyde bis(diethylacetal) was used as reference compound. The IC50 values of the compounds were determined on the basis of the concentration/effect correlations thereof and are indicated in Table I.
# [2] = system: Fe^2+-induced lipid peroxidation in rat brain homogenate; test: Effect on the Fe^2+-induced (non-enzymatically induced) lipid peroxidation in brain homogenate; type: biochemical, rat (Hannover-Wistar); settings: for antioxidant activity compared with tirilazad mesylate / inhibition of the Fe^2+-induced lipid peroxidation compared with silymarin or ellagic acid / inhibitory effect on the Fe^2+-induced lipid peroxidation compared with DL-α-tocopherol: in words, from Table I; for pIC50: rat brain homogenate, 20 min, 37° C., pH 7.4, 8 mM ferrous diammonium disulfate solution (5 μl), malondialdehyde at 535 nm, read-out: Inhibition of the Fe^2+-induced lipid peroxidation IC50
# Experimental: Effect on the Fe^2 +-induced lipid peroxidation in brain homogenate
# After decapitating Hannover-Wistar rats weighing 150-220 g each, the whole brain was homogenized in 9 volumes of icecold Krebs-Ringer's buffer containing 15 mM 4-(2-hydroxyethyl)-1-(piperazinylethanesulfonic acid (abbreviated: HEPES, pH 7.4), 140 mM sodium chloride, 3.6 mM potassium chloride, 1.5 mM calcium chloride, 0.7 mM magnesium chloride, 1.4 mM potassium dihydrogen phosphate and 10 mM glucose!. Then, the protein content of the solution was determined and adjusted to 10 mg/ml concentration.
# After adding the inhibitory agent to be tested in a volume of 5 ml to 200 μl of the homogenate, the incubation mixture was incubated at 37° C. for 20 minutes. The Fe^2+ -induced lipid peroxidation was accomplished by adding 5 μl of 8 mM ferrous diammonium disulfate Fe(NH4)2 (SO4)2 ! solution. After passing of the incubation time, the reaction was stopped by adding 1 ml of a stopping solution containing 0.8M hydrogen chloride in trichloroacetic acid solution of 12.5%; then the samples were centrifuged at 2000×g in a Janetzki apparatus at 4° C. for 10 minutes.
# To 0.5 ml portion of the supernatant, 1 ml of 1% thiobarbituric acid solution was added, then the samples were placed in a water bath of 100° C. for 20 minutes. The color intensity developed was determined at 535 nm with the aid of a Hitachi 150-20 spectrophotometer by using malondialdehyde bis(diethylacetal) as reference compound.
pIC50 [1],pIC50 [2],Inhibition of the NADPH-induced lipid peroxidation IC50 [1],SMILES,antioxidant activity compared with tirilazad mesylate [2],inhibition of the Fe^2+-induced lipid peroxidation compared with silymarin or ellagic acid [2],inhibitory effect on the Fe^2+-induced lipid peroxidation compared with DL-α-tocopherol [2]
5.21,3.95,–,"CC[C@@]12C=C(CN3CCN(c4cc(N5CCCC5)nc(N5CCCC5)n4)CC3)n3c4c(c5ccccc53)CCN(CCC1)[C@H]42 [Compound 2, 1-{ (3α,16α)-eburnamenine-14-yl!methyl}-4-2,6-bis(pyrrolidino)-4-pyrimidinyl!piperazine trihydrobromide]",reaches and even exceeds to some extent the lipid peroxidation-inhibiting effect of tirilazad mesylate,–,–
–,4.98,N.I.,"Cc1c(C)c2c(c(C)c1O)CCC(C)(CCCC(C)CCCC(C)CCCC(C)C)O2 (racemic) [DL-α-Tocopherol, reference compound]",–,–,–
4.33,4.29,–,"O=c1oc2c(O)c(O)cc3c(=O)oc4c(O)c(O)cc1c4c23 [Ellagic acid, 4,4',5,5',6,6'-hexahydrodiphenic acid 2,6':2',6-dilactone, reference compound]",–,–,–
4.62,3.91,–,"CC[C@@]12C=C(C(=O)N3CCN(c4cc(N5CCCC5)nc(N5CCCC5)n4)CC3)n3c4c(c5ccccc53)CCN(CCC1)[C@H]42 [Compound 1, 1-(3α,16α)-eburnamenine-14-carbonyl!-4-2,6-bis(pyrrolidino)-4-pyrimidinyl!piperazine]",reaches and even exceeds to some extent the lipid peroxidation-inhibiting effect of tirilazad mesylate,–,–
5.62,4.94,–,"CCC12C=C(C(=O)N3CCN(c4cc(N5CCCC5)nc(N5CCCC5)n4)CC3)n3c4c(c5ccccc53)CCN(CCC1)C42 (stereo not drawn) [Compound 3, 1-(16α)-eburnamenine-14-carbonyl!-4-2,6-bis(pyrrolidino)-4-pyrimidinyl!piperazine]",–,more effectively than the hepatoprotective silymarin or the anticancerogenic ellagic acid,reaches the antioxidant activity of the therapeutically used DL-α-tocopherol
3.92,3.87,–,"C[C@@H]1C[C@H]2[C@@H]3CCC4=CC(=O)C=C[C@]4(C)C3=CC[C@]2(C)[C@H]1C(=O)CN1CCN(c2cc(N3CCCC3)nc(N3CCCC3)n2)CC1 [Tirilazad mesylate, 16α-methyl-21-{4-2,4-bis(pyrrolidino)6-pyrimidinyl!-1-piperazinyl}-pregna-1,4,9(11)-trien-3,20-dione methanesulfonate, reference compound]",–,–,–
5.51,4.99,–,"CCC12C=C(C(=O)N3CCN(c4cc(N5CCCC5)nc(N5CCCC5)n4)CC3)n3c4c(c5ccccc53)CCN(CCC1)C42 (stereo not drawn) [Compound 4, 1-(3α)-eburnamenine-14-carbonyl!-4-2,6-bis(pyrrolidino)-4-pyrimidinyl!piperazine]",–,more effectively than the hepatoprotective silymarin or the anticancerogenic ellagic acid,reaches the antioxidant activity of the therapeutically used DL-α-tocopherol
